Results as given in patent US10421755B2, “Salts of aza-bicyclic di-aryl ethers and methods to make them or their precursors” (Novartis AG, priority 2011, dated 2019).

Key:
Type in all cases: physicochemical
[1] = Loss on drying / initial water content; set-up: Initial water content: unit not given here; details: for Initial water content: comparison table, Example 7
[2] = Hygroscopicity (moisture gain at relative humidity); set-up: Hygroscopy @ 85% RH: unit not given here; details: for moisture gain: at 85% relative humidity (RH); for Hygroscopy @ 85% RH: comparison table, Example 7
[3] = Known multiple solid forms; details: comparison table, Example 7
[4] = Decomposition temperature; set-up: unit not given here; details: comparison table, Example 7
[5] = Stability in buffer solutions and in solid state

Row | SMILES | Loss on drying (LOD) of a sample [1] | Initial water content [1] | hygroscopicity (in words) [2] | moisture gain [2] | Hygroscopy @ 85% RH [2] | Known Multiple forms [3] | Decomposition temperature [4] | solid-state stability [5] | stability in buffer solutions ([5]; many buffer solutions, various pH values)
1 | Cc1ccc(-c2ccc(O[C@H]3CN4CCC3CC4)cn2)cc1.O=P(O)(O)O [Form A of the mono-phosphate salt, mono-phosphate salt of (R)-3-(6-(4-methylphenyl)-pyridin-3-yloxy)-1-aza-bicyclo[2.2.2]octane] | about 0.5% | ~0.5 | slightly hygroscopic | 0.2% | 0.2 | Yes | 222 | – | –
2 | Cc1ccc(-c2ccc(O[C@H]3CN4CCC3CC4)cn2)cc1.O=C(O)CCC(=O)O [Form A of the mono-succinate salt, mono-succinate salt of (R)-3-(6-(4-methylphenyl)-pyridin-3-yloxy)-1-aza-bicyclo[2.2.2]octane] | about 4.5% | ~4.5 | – | 0.3% | 0.3 | Yes | 222 | – | –
3 | Cc1ccc(-c2ccc(O[C@H]3CN4CCC3CC4)cn2)cc1.Cl [mono-hydrochloride salt, mono-hydrochloride salt of (R)-3-(6-(4-methylphenyl)-pyridin-3-yloxy)-1-aza-bicyclo[2.2.2]octane] | about 5% | ~5 | hygroscopic | about 5% | ~5 | Yes | 262 | – | –
4 | Cc1ccc(-c2ccc(O[C@H]3CN4CCC3CC4)cn2)cc1.O=C(O)/C=C\C(=O)O [mono-maleate salt, mono-maleate salt of (R)-3-(6-(4-methylphenyl)-pyridin-3-yloxy)-1-aza-bicyclo[2.2.2]octane] | < 0.03% | <0.1 | slightly hygroscopic | 0.3% | 0.3 | No | 207 | good | good stability
5 | Cc1ccc(-c2ccc(O[C@H]3CN4CCC3CC4)cn2)cc1.O=C(O)CC(=O)O [mono-malonate salt, mono-malonate salt of (R)-3-(6-(4-methylphenyl)-pyridin-3-yloxy)-1-aza-bicyclo[2.2.2]octane] | 0% | ~0 | slightly hygroscopic | 1.3% | 1.3 | No | 148 | – | –
